Here are results for two molecules from patent publication US12036236B2, “Antimicrobial guanidinium macromolecules with bacteria targeting moieties” (International Business Machines Corporation, priority 2018, dated 2024).

Each structure is given as a SMILES string.

The subject of assay [1] is A. baumannii 4123. The assay can be described thus: Effective dose (ED50, ED95) in bacteremia infection mouse model. To be noted: Acinetobacter baumannii, 4123, ip; immunosuppressed mice, intraperitoneal 1.0 and 6.0 hours after infection, survival 7.0 days, BLISS method; read-out: ED50 (effective dose that cures 50% infected mice). Type of assay: in vivo.
Experimental: In this regard, immunosuppressed mice were used for the following in vivo studies. Immunosuppression was induced by intraperitoneal injection of 200 mg/kg cyclophosphamide 4 days prior to infection. The mice were anesthetized by intraperitoneal injection of 1% pentobarbital (40 mg/kg, sigma). The mice were then infected with A. baumannii 4123 to determine the minimum lethal dose for subsequent effective dose and efficacy testing. Briefly, overnight cultures of A. baumannii 4123 were harvested and suspended in phosphate-buffered saline (PBS). Subsequently, the cyclophosphamide-pretreated mice were injected with 0.3 mL of the bacterial suspension at designated doses (e.g., 1.0×10^8, 2.5×10^8, 5×10^8, 1.0×10^9, 2.0×10^9 CFU/mL, six mice per group) via the tail vein. The minimum lethal dose, the lowest concentration sufficient to cause 100% mortality, was determined from the survival rate of mice at 48 hours post-infection by the BLISS method.
Firstly, a bacterial suspension with the minimum lethal dose (0.3 mL) was introduced to the above described cyclophosphamide-pretreated mice via the tail vein. […] The number of surviving mice in each group was recorded for 7.0 days to estimate ED50 and ED95 via the BLISS method.
Assay [2] concerns clinically isolated MDR K. pneumoniae, E. coli, A. baumannii and MRSA strains. The assay can be described thus: MIC by broth microdilution against different types and strains of clinically isolated MDR bacteria. It counts as cell-based. To be noted: MIC comparison. For orientation: Broth dilution looks for growth in wells or tubes with falling amounts of substance.
Experimental: To facilitate comparison, an antimicrobial guanidinium-based macromolecule without a sugar functional group (identified herein as Dp20), as well as strong antibiotics (including imipenem, vancomycin, ceftriaxone, and gentamycin), were also tested against the clinically isolated pathogens. The MDR clinical isolates were obtained from patients' blood and phlegm. All isolates were identified by routine laboratory methods and stored in 20% (v/v) glycerol at 80° C.
In accordance with the broth microdilution method, MDR microbes including one or more strains of K. pneumoniae, E. coli, A. baumannii, and MRSA were harvested in midexponential growth phase after grown overnight in Mueller-Hinton (MH) agar plates at 37° C. The antimicrobial agents were prepared in Mueller Hinton broth (MHB) at various concentrations. The bacteria suspensions were then diluted with phosphate-buffer saline (PBS), with a potential of Hydrogen (PH) of 7.4) to adjust the turbidity approximately to the Standard McFarland 0.6, which corresponds to the concentration of 1×10^8 colony-forming unit (CFU) per mL (CFU/mL, after which the bacteria suspension was further diluted by 100-fold with MHB (1×10^6 CFU/mL). Subsequently, equal volumes (100 μL) of bacterial suspension and agent solution prepared previously were mixed in each well of a 96-well plate and incubated for 18 hours at 37° C. […]

For orientation: ED50 means the dose that gives a 50% effect, or the effect in half of the subjects. In the case of `C[C@@H](O)[C@H]1C(=O)N2C(C(=O)O)=C(SCCN=CN)C[C@H]12` [imipenem], the ED50 in assay [1] came to 6.1 mg/kg.

In the case of `CN[C@H](CC(C)C)C(=O)N[C@H]1C(=O)N[C@@H](CC(N)=O)C(=O)N[C@H]2C(=O)N[C@H]3C(=O)N[C@H](C(=O)N[C@H](C(=O)O)c4cc(O)cc(O)c4-c4cc3ccc4O)[C@H](O)c3ccc(c(Cl)c3)Oc3cc2cc(c3O[C@@H]2O[C@H](CO)[C@@H](O)[C@H](O)[C@H]2O[C@H]2C[C@](C)(N)[C@H](O)[C@H](C)O2)Oc2ccc(cc2Cl)[C@H]1O` [vancomycin], the “spectrum of efficacy (Gram-negative / Gram-positive strains)” value in assay [2] is recorded as “only demonstrated efficacy Gram-positive strains”.
